pIC50: −log10 of the molar value. Where a SMILES comes first, the peptide text is derived from it.
How the values were obtained:
Format in all cases: cell-based
[1] = target: Neuronal acetylcholine receptor; alpha3/beta4 (Homo sapiens, UniProt P30926+P32297); assay: Antagonist activity at human alpha3beta4 nAChR expressed in Xenopus oocytes assessed as inhibition of ACh-induced current by voltage clamp electrophysiology method
[2] = target: Neuronal acetylcholine receptor; alpha3/alpha6/beta2/beta3 (Homo sapiens, UniProt P17787+P32297+Q05901+Q15825); assay: Antagonist activity at human alpha6/alpha3beta2beta3 nAChR expressed in Xenopus oocytes assessed as inhibition of ACh-induced current by voltage clamp electrophysiology method
[3] = target: Neuronal acetylcholine receptor; alpha3/beta2 (Homo sapiens, UniProt P17787+P32297); assay: Antagonist activity at human alpha3beta2 nAChR expressed in Xenopus oocytes assessed as inhibition of ACh-induced current by voltage clamp electrophysiology method
[4] = target: Nicotinic acetylcholine receptor alpha6/alpha3/beta4 (Homo sapiens, UniProt P30926+P32297+Q15825); assay: Antagonist activity at human alpha6alpha3beta4 nAChR expressed in Xenopus oocytes assessed as inhibition of ACh-induced current by voltage clamp electrophysiology method
Chain of Nicotinic acetylcholine receptor alpha6/alpha3/beta4 (P30926 whole entry): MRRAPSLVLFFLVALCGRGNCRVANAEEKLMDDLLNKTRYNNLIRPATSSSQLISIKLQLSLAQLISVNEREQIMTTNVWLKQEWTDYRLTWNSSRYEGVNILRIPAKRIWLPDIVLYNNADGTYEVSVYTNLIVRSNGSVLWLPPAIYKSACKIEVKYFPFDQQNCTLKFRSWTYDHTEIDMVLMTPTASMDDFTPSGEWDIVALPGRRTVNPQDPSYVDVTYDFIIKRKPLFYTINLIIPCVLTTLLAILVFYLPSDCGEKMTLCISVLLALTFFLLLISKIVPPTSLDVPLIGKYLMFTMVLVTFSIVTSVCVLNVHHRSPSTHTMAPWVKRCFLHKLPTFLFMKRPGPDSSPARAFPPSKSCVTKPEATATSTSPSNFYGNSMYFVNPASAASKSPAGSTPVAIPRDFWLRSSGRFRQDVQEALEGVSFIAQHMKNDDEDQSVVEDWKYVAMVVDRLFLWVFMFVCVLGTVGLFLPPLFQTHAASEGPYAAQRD
Chain of Nicotinic acetylcholine receptor alpha6/alpha3/beta4 (P32297 whole entry): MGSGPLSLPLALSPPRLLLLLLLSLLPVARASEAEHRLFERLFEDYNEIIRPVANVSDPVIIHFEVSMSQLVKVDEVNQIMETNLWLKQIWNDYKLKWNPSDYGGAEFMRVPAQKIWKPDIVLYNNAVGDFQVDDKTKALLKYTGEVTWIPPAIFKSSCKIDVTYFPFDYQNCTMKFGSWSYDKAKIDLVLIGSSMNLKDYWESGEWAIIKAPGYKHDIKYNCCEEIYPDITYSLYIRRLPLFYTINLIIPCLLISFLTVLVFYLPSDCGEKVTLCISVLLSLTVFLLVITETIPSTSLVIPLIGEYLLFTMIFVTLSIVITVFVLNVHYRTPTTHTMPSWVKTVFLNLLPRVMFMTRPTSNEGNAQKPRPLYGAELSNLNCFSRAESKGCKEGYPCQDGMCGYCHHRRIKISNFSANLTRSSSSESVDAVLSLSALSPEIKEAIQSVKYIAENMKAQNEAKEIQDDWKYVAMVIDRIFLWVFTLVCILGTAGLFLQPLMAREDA
Chain of Nicotinic acetylcholine receptor alpha6/alpha3/beta4 (Q15825 whole entry): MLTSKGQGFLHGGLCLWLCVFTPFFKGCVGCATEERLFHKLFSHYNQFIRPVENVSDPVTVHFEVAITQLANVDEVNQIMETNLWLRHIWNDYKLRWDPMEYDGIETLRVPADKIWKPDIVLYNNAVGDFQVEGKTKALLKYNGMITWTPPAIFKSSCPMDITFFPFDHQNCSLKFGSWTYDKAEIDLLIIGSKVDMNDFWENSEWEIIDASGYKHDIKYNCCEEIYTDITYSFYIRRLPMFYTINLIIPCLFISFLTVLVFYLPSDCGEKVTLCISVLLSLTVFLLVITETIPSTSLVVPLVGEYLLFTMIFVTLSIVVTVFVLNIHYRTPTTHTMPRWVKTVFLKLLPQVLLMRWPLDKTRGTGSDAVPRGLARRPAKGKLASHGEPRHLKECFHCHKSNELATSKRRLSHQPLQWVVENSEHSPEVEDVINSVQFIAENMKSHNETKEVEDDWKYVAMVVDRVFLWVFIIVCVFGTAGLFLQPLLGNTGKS

Chain of Neuronal acetylcholine receptor; alpha3/beta4 (P30926 whole entry): as the sequence (P30926 whole entry) above
Chain of Neuronal acetylcholine receptor; alpha3/beta4 (P32297 whole entry): as the sequence (P32297 whole entry) above
Chain of Neuronal acetylcholine receptor; alpha3/beta2 (P17787 whole entry): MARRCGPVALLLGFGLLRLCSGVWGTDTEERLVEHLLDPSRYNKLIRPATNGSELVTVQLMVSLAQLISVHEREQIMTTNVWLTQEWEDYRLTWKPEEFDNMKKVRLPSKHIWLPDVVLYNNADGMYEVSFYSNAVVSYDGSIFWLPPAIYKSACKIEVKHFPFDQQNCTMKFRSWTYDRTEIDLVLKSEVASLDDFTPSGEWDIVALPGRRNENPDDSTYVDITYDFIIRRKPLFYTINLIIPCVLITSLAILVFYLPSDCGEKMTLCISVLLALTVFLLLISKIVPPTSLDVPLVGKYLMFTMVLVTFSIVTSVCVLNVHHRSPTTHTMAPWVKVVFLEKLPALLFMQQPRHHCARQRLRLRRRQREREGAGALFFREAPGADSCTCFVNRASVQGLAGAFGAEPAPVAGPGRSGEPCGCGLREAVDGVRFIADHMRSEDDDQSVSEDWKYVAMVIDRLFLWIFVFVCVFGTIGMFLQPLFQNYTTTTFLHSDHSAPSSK
Chain of Neuronal acetylcholine receptor; alpha3/beta2 (P32297 whole entry): as the sequence (P32297 whole entry) above
Chain of Neuronal acetylcholine receptor; alpha3/alpha6/beta2/beta3 (P17787 whole entry): as the sequence (P17787 whole entry) above
Chain of Neuronal acetylcholine receptor; alpha3/alpha6/beta2/beta3 (P32297 whole entry): as the sequence (P32297 whole entry) above
Chain of Neuronal acetylcholine receptor; alpha3/alpha6/beta2/beta3 (Q15825 whole entry): as the sequence (Q15825 whole entry) above
Chain of Neuronal acetylcholine receptor; alpha3/alpha6/beta2/beta3 (Q05901 whole entry): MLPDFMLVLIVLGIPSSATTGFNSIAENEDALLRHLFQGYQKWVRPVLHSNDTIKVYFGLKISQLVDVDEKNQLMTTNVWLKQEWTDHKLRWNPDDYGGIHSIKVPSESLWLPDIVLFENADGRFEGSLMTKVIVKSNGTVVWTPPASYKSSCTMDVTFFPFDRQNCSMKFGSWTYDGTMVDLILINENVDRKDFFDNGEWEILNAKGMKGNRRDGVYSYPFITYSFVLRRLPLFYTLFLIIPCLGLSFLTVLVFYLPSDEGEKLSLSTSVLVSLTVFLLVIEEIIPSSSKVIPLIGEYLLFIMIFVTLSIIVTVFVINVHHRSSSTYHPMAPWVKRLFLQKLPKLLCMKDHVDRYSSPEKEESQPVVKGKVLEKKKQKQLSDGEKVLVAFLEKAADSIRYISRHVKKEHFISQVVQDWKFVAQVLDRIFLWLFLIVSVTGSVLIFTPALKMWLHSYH

Work on CC[C@H](C)[C@@H]1NC(=O)[C@H](CCC(N)=O)NC(=O)[C@@H]2CCCN2C(=O)[C@H](CC(N)=O)NC(=O)[C@H](Cc2cnc[nH]2)NC(=O)[C@H](C(C)C)NC(=O)[C@H]([C@@H](C)O)NC(=O)[C@@H]2CSSC[C@H](NC(=O)[C@@H]3CCCN3C(=O)[C@H](CC(=O)O)NC(=O)[C@@H](N)CCCN=C(N)N)C(=O)N[C@@H](CSSC[C@@H](C(N)=O)NC1=O)C(=O)N[C@@H](CO)C(=O)N[C@@H](CC(N)=O)C(=O)N1CCC[C@H]1C(=O)N[C@@H](C(C)C)C(=O)N2 (HELM PEPTIDE1{R.D.P.C.C.S.N.P.V.C.T.V.H.N.P.Q.I.C.[am]}$PEPTIDE1,PEPTIDE1,4:R3-10:R3|PEPTIDE1,PEPTIDE1,5:R3-18:R3$$$V2.0) yielded a pIC50 [1] of 6.29, a pIC50 [2] of 9.02 and a pIC50 [3] of 7.13. The pIC50 [4] was 7.52.
